Data: patent US6737383B1, “Herbicidal oxadiazolidines” (priority 1999, dated 2004)

Key:
[1] = system: rice; test: Test B flood test rice; type: in vivo, Oryza sativa
How it was run: (§1)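 Flood test on plants grown to the 2-leaf stage; treated plants kept in greenhouse twelve to sixteen days, then visually rated against controls on a 0 (no effect) to 10 (complete control) scale.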

[2] = system: velvetleaf; test: Test B pre/postemergence velvetleaf; type: in vivo, Abutilon theophrasti
How it was run: (§2)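 Response is a visual 0-to-10 score relative to untreated plants, where 0 means no effect and 10 means complete control, taken twelve to sixteen days after application. Treatments went onto soil at planting and onto foliage of 1- to 4-leaf plants, using a surfactant-containing non-phytotoxic solvent.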

[3] = system: giant foxtail; test: Test B pre/postemergence giant foxtail; type: in vivo, Setaria faberii
How it was run: as §2

[4] = system: bamyardgrass; test: Test B flood test barnyardgrass; type: in vivo, Echinochloa crus-galli
How it was run: as §1

[5] = system: rape; test: Test B pre/postemergence rape; type: in vivo, Brassica napus
How it was run: as §2

[6] = system: crabgrass; test: Test B pre/postemergence crabgrass; type: in vivo, Digitaria sanguinalis
How it was run: as §2

[7] = system: wild oat; test: Test B pre/postemergence wild oat; type: in vivo, Avena fatua
How it was run: as §2

[8] = system: blackgrass; test: Test B pre/postemergence blackgrass; type: in vivo, Alopecurus myosuroides
How it was run: as §2

[9] = system: pigweed; test: Test B pre/postemergence pigweed; type: in vivo, Amaranthus retroflexus
How it was run: as §2

[10] = system: surinam grass; test: Test B pre/postemergence surinam grass; type: in vivo, Brachiaria decumbens
How it was run: as §2

[11] = system: smallflower flatsedge; test: Test B flood test smallflower flatsedge; type: in vivo, Cyperus difformis
How it was run: as §1

[12] = system: corn; test: Test B pre/postemergence corn; type: in vivo, Zea mays
How it was run: as §2

[13] = system: sugar beet; test: Test B pre/postemergence sugar beet; type: in vivo, Beta vulgaris
How it was run: as §2

[14] = system: cocklebur; test: Test B pre/postemergence cocklebur; type: in vivo, Xanthium strumarium
How it was run: as §2

[15] = system: purple nutsedge; test: Test B pre/postemergence purple nutsedge; type: in vivo, Cyperus rotundus
How it was run: as §2

[16] = system: wheat; test: Test B pre/postemergence wheat; type: in vivo, Triticum aestivum
How it was run: as §2

[17] = system: duck salad; test: Test B flood test duck salad; type: in vivo, Heteranthera limosa
How it was run: as §1

[18] = system: soybean; test: Test B pre/postemergence soybean; type: in vivo, Glycine max
How it was run: as §2

[19] = system: morningglory; test: Test B pre/postemergence morningglory; type: in vivo, Ipomoea hederacea
How it was run: as §2

[20] = Rate 62 g/ha, flood test species, Pre-emergence, visual evaluation after twelve to sixteen days
[21] = Rate 125 g/ha, under heading Pre-emergence, flood test species, visual evaluation after twelve to sixteen days
[22] = Rate 500 g/ha, Pre-emergence section of Table B, 0 to 10 scale (0 no effect, 10 complete control)
[23] = Postemergence, Rate 125 g/ha, scale of 0 to 10 where 0 is no effect and 10 is complete control
[24] = Postemergence, Rate 250 g/ha, scale of 0 to 10, 0 is no effect, 10 is complete control
[25] = Postemergence, Rate 500 g/ha, scale of 0 to 10 where 0 is no effect and 10 is complete control
[26] = Preemergence, Rate 62 g/ha, scale 0 to 10 (0 no effect, 10 complete control)
[27] = Preemergence, Rate 125 g/ha, scale of 0 to 10 where 0 is no effect and 10 is complete control
[28] = Preemergence, Rate 500 g/ha, scale of 0 to 10 where 0 is no effect and 10 is complete control
[29] = Postemergence, Rate 62 g/ha, scale of 0 to 10, 0 is no effect, 10 is complete control

## CCc1nc(C)c(C(C)n2c(=O)on(C(=O)N(c3ccc(F)cc3F)C(C)C)c2=O)s1 (stereo not shown) [Compound 589]
[1]; [20]
  Plant response rating, Rice (0 to 10 scale, 0 is no effect, 10 is complete control): 0
[1]; [21]
  Rice plant response rating (0 to 10 scale, 0 is no effect, 10 is complete control): 0
[1]; [22]
  Rice plant response rating: 0
[2]; [23]
  Plant response rating, Velvetleaf: 2
[2]; [24]
  Velvetleaf plant response rating: 5
[2]; [25]
  Plant response rating, Velvetleaf: 5
[2]; [26]
  Velvetleaf plant response rating: 0
[2]; [27]
  Velvetleaf plant response rating: 0
[2]; [28]
  Velvetleaf plant response rating: 0
[3]; [29]
  Giant foxtail plant response rating: 0
[3]; [23]
  Plant response rating, Giant foxtail: 0
[3]; [24]
  Giant foxtail plant response rating: 0
[3]; [25]
  Plant response rating, Giant foxtail: 3
[3]; [26]
  Giant foxtail plant response rating: 3
[3]; [27]
  Giant foxtail plant response rating: 9
[3]; [28]
  Giant foxtail plant response rating: 10
[4]; [20]
  Plant response rating, Barnyardgrass (0 to 10 scale, 0 is no effect, 10 is complete control): 0
[4]; [21]
  Barnyardgrass plant response rating (0 to 10 scale, 0 is no effect, 10 is complete control): 0
[4]; [22]
  Barnyardgrass plant response rating: 0
[5]; [29]
  Rape plant response rating: 0
[5]; [23]
  Plant response rating, Rape: 0
[5]; [24]
  Rape plant response rating: 0
[5]; [25]
  Plant response rating, Rape: 2
[5]; [26]
  Rape plant response rating: 0
[5]; [27]
  Rape plant response rating: 0
[5]; [28]
  Rape plant response rating: 0
[6]; [29]
  Crabgrass plant response rating: 0
[6]; [23]
  Plant response rating, Crabgrass: 0
[6]; [24]
  Crabgrass plant response rating: 1
[6]; [25]
  Plant response rating, Crabgrass: 3
[6]; [26]
  Crabgrass plant response rating: 0
[6]; [27]
  Crabgrass plant response rating: 1
[6]; [28]
  Crabgrass plant response rating: 9
[7]; [23]
  Plant response rating, Wild oats: 0
[7]; [24]
  Wild oats plant response rating: 0
[7]; [26]
  Wild oats plant response rating: 0
[7]; [27]
  Wild oats plant response rating: 0
[7]; [28]
  Wild oats plant response rating: 0
[8]; [29]
  Blackgrass plant response rating: 0
[8]; [23]
  Plant response rating, Blackgrass: 0
[8]; [24]
  Blackgrass plant response rating: 2
[8]; [25]
  Plant response rating, Blackgrass: 3
[8]; [26]
  Blackgrass plant response rating: 0
[8]; [27]
  Blackgrass plant response rating: 0
[8]; Preemergence, Rate 250 g/ha
  Blackgrass plant response rating (0 to 10 scale): 0
[8]; [28]
  Blackgrass plant response rating: 0
[9]; [23]
  Plant response rating, Redroot pigweed: 0
[9]; [24]
  Redroot pigweed plant response rating: 2
[9]; [25]
  Plant response rating, Redroot pigweed: 2
[9]; [26]
  Redroot pigweed plant response rating: 0
[9]; [27]
  Redroot pigweed plant response rating: 0
[9]; [28]
  Redroot pigweed plant response rating: 0
[10]; [29]
  B. signalgrass plant response rating: 0
[10]; [23]
  Plant response rating, B. signalgrass: 0
[10]; [24]
  B. signalgrass plant response rating: 0
[10]; [25]
  Plant response rating, B. signalgrass: 3
[10]; [26]
  B. signalgrass plant response rating: 0
[10]; [27]
  B. signalgrass plant response rating: 0
[10]; Preemergence, Rate 250 g/ha
  B. signalgrass plant response rating (0 to 10 scale, 0 is no effect, 10 is complete control): 0
[10]; [28]
  B. signalgrass plant response rating: 0
[11]; [20]
  Plant response rating, S. Flatsedge (0 to 10 scale, 0 is no effect, 10 is complete control): 0
[11]; [21]
  S. Flatsedge plant response rating (0 to 10 scale, 0 is no effect, 10 is complete control): 0
[11]; [22]
  S. Flatsedge plant response rating: 0
[12]; [29]
  Corn plant response rating: 0
[12]; [23]
  Plant response rating, Corn: 0
[12]; [24]
  Corn plant response rating: 0
[12]; [25]
  Plant response rating, Corn: 0
[12]; [26]
  Corn plant response rating: 0
[12]; [27]
  Corn plant response rating: 0
[12]; Preemergence, Rate 250 g/ha
  Corn plant response rating (0 to 10 scale): 0
[12]; [28]
  Corn plant response rating: 0
[13]; [23]
  Plant response rating, Sugarbeets: 0
[13]; [24]
  Sugarbeets plant response rating: 0
[13]; [25]
  Plant response rating, Sugarbeets: 0
[13]; [26]
  Sugarbeets plant response rating: 0
[13]; [27]
  Sugarbeets plant response rating: 0
[13]; [28]
  Sugarbeets plant response rating: 0
[14]; [29]
  Cocklebur plant response rating: 0
[14]; [23]
  Plant response rating, Cocklebur: 0
[14]; [24]
  Cocklebur plant response rating: 0
[14]; [25]
  Plant response rating, Cocklebur: 0
[14]; [26]
  Cocklebur plant response rating: 0
[14]; [27]
  Cocklebur plant response rating: 0
[14]; Preemergence, Rate 250 g/ha
  Cocklebur plant response rating (0 to 10 scale): 0
[14]; [28]
  Cocklebur plant response rating: 0
[15]; [29]
  Nutsedge plant response rating: 0
[15]; [23]
  Plant response rating, Nutsedge: 0
[15]; [26]
  Nutsedge plant response rating: 0
[15]; [27]
  Nutsedge plant response rating: 0
[15]; [28]
  Nutsedge plant response rating: 9
[16]; [23]
  Plant response rating, Wheat: 0
[16]; [24]
  Wheat plant response rating: 0
[16]; [25]
  Plant response rating, Wheat: 0
[16]; [26]
  Wheat plant response rating: 0
[16]; [27]
  Wheat plant response rating: 0
[16]; [28]
  Wheat plant response rating: 0
[17]; [20]
  Plant response rating, Ducksalad (0 to 10 scale, 0 is no effect, 10 is complete control): 0
[17]; [21]
  Ducksalad plant response rating (0 to 10 scale, 0 is no effect, 10 is complete control): 0
[17]; [22]
  Ducksalad plant response rating: 0
[18]; [23]
  Plant response rating, Soybean: 3
[18]; [24]
  Soybean plant response rating: 3
[18]; [25]
  Plant response rating, Soybean: 3
[18]; [26]
  Soybean plant response rating: 0
[18]; [27]
  Soybean plant response rating: 0
[18]; [28]
  Soybean plant response rating: 0
[19]; [29]
  Morningglory plant response rating: 3
[19]; [23]
  Plant response rating, Morningglory: 3
[19]; [24]
  Morningglory plant response rating: 5
[19]; [25]
  Plant response rating, Morningglory: 6
[19]; [26]
  Morningglory plant response rating: 0
[19]; [27]
  Morningglory plant response rating: 0
[19]; [28]
  Morningglory plant response rating: 0
